The experiment relates to SMN protein. Nature of the experiment: cellular SMN ELISA (SMN protein elevation). The experiment is classed as cell-based. The note with it: myoblast cell line from SMNdelta7 mouse model, 24 hours treatment; for SMN activity Fold: fold activation over DMSO control. As for the experimental part: A cellular SMN ELISA was used to measure the effects of low molecular weight compounds on SMN protein elevation. Cells from a myoblast cell line derived from the SMNdelta7 mouse model (kind gift from Steve Burden, NYU) were seeded into a 384-well plate at a density of 3000 cells/well and treated with compounds for 24 hours. ELISA capture plates were prepared by coating 384-well plates (Immulon 4HBX) with 0.5 ug/mL of anti-SMN mAb (BD Science, Catalog number 610647) at 4° C. overnight. The plates were washed 5 times with 110 uL of PBS-Tween (0.05% Tween-20, PBST), blocked with 100 uL of 1% BSA in PBST for 2 hours and washed (5 times) with 100 uL of PBST. After 24 hours of compound treatment cells were lysed in a modified RIPA-buffer, on ice for 1 hour. 20 uL of lysate and 20 uL of 1% BSA were then added to the ELISA capture plates and incubated at 4° C. overnight. Plates were washed (5 times) with PBST and then incubated with 1:100 dilution of primary rabbit anti-SMN polyclonal antibody (Santa cruz, Catalog number SC-15320) at room temperature for 1 hour and subsequently washed (5 times) with 110 uL of PBST. This was followed by addition of 1:100 Goat anti-Rabbit IgG-HRP linked (Cell Signaling, Catalog number 7074) secondary antibody for 1 hour. Plates were then washed with PBST and incubated with 40 uL TMB substrate (Cell Signaling, Catalog number 7004L) at room temperature for 1-10 minutes with shaking. The reaction was stopped by addition of 40 uL of stop solution (Cell signaling, Catalog number 7002L) and absorption was measured at 450 nm. Data was reported as fold activation over DMSO control, and EC50.
ELISA assay condition 1: compound concentration range 20 nM-10 uM; ELISA assay condition 2: compound concentration 100 pM-10 uM.

[1] abbreviates: ELISA condition 2: compound concentration 100 pM-10 uM.
Setting [2] is: ELISA condition 1: compound concentration range 20 nM-10 uM.

Usually EC50 stands for the midpoint of the concentration-response curve. Regarding `Oc1cc(-n2cccn2)ccc1-c1ccc(N2CCNCC2)nn1` [Example 18-1, 2-(6-piperazin-1-yl-pyridazin-3-yl)-5-pyrazol-1-yl-phenol], under setting [1], the response was half-maximal at 296 nM (EC50) and the “SMN activity Fold” value was 3.07 Fold.

Take `Oc1cc2ccccc2cc1-c1ccc(NC2CNC2)nn1` [Example 18-2, 3-[6-(azetidin-3-ylamino)-pyridazin-3-yl]-naphthalen-2-ol]: under setting [1], a half-maximal response (EC50) required 3230 nM and the “SMN activity Fold” value is on record as 1.97 Fold.

For `Oc1cc(-n2cccn2)ccc1-c1ccc(NC2CNC2)nn1` [Example 18-3, 2-[6-(azetidin-3-ylamino)-pyridazin-3-yl]-5-pyrazol-1-yl-phenol], under setting [2], a half-maximal response (EC50) required 660 nM and the “SMN activity Fold” value worked out at 1.95 Fold.

Take `CC1CN(c2ccc(-c3ccc(-n4cccn4)cc3O)nn2)CC(C)N1` (centres unmarked) [Example 18-4, 2-[6-(3,5-dimethyl-piperazin-1-yl)-pyridazin-3-yl]-5-pyrazol-1-yl-phenol]: under setting [1], the EC50 was determined as 388 nM and the “SMN activity Fold” value is recorded as 2.84 Fold.

Turning to `CN1CCC2(CCN(c3ccc(-c4ccc(-n5cccn5)cc4O)nn3)C2)C1` (centres unmarked) [Example 18-5, 2-[6-(7-methyl-2,7-diaza-spiro[4.4]non-2-yl)-pyridazin-3-yl]-5-pyrazol-1-yl-phenol], under setting [1], a half-maximal response (EC50) required 151 nM and the “SMN activity Fold” value stood at 2.66 Fold.

For `Oc1cc(-n2cccn2)ccc1-c1ccc(N2CCCNCC2)nn1` [Example 18-6, 2-(6-[1,4]diazepan-1-yl-pyridazin-3-yl)-5-pyrazol-1-yl-phenol], under setting [1], the midpoint of the response, the EC50, lay at 268 nM and the “SMN activity Fold” value came to 2.54 Fold.

As for `OCCN1CCN(c2ccc(-c3ccc(-n4cccn4)cc3O)nn2)CC1` [Example 18-7, 2-{6-[4-(2-hydroxy-ethyl)-piperazin-1-yl]-pyridazin-3-yl}-5-pyrazol-1-yl-phenol], under setting [1], the response was half-maximal at 2660 nM (EC50) and the “SMN activity Fold” value was found to be 2.67 Fold.

For the compound `Oc1cc(-n2cccn2)ccc1-c1ccc(N2CC3CNC(C3)C2)nn1` (centres unmarked) [Example 18-8, 2-[6-(3,6-diaza-bicyclo[3.2.1]oct-3-yl)-pyridazin-3-yl]-5-pyrazol-1-yl-phenol], under setting [1], the EC50 was found to be 983 nM and the “SMN activity Fold” value amounted to 2.32 Fold.

With `Oc1cc(-n2cccn2)ccc1-c1ccc(N2CCC3(CC2)CNC3)nn1` [Example 18-9, 2-[6-(2,7-diaza-spiro[3.5]non-7-yl)-pyridazin-3-yl]-5-pyrazol-1-yl-phenol], under setting [2], the EC50 came to 1180 nM and the “SMN activity Fold” value was 1.93 Fold.

For the compound `OCC1CN(c2ccc(-c3ccc(-n4cccn4)cc3O)nn2)CCN1` (centres unmarked) [Example 18-10, 2-[6-(3-hydroxy-methyl-piperazin-1-yl)-pyridazin-3-yl]-5-pyrazol-1-yl-phenol], under setting [1], the EC50 stood at 386 nM and the “SMN activity Fold” value is reported as 2.55 Fold.

As for `Oc1cc(-n2cccn2)ccc1-c1ccc(N2CCC3(CCCN3)C2)nn1` (centres unmarked) [Example 18-11, 2-[6-(1,7-diaza-spiro[4.4]non-7-yl)-pyridazin-3-yl]-5-pyrazol-1-yl-phenol], under setting [1], the response was half-maximal at 320 nM (EC50) and the “SMN activity Fold” value amounted to 2.53 Fold.

With `CC1(N)CCN(c2ccc(-c3ccc(-n4cccn4)cc3O)nn2)CC1` [Example 18-12, 2-[6-(4-amino-4-methyl-piperidin-1-yl)-pyridazin-3-yl]-5-pyrazol-1-yl-phenol], under setting [1], the EC50 was found to be 792 nM and the “SMN activity Fold” value was found to be 2.62 Fold.

As to `CN(C)C1CCCN(c2ccc(-c3ccc(-n4cccn4)cc3O)nn2)C1` (centres unmarked) [Example 18-13, 2-[6-(3-dimethyl-amino-piperidin-1-yl)-pyridazin-3-yl]-5-pyrazol-1-yl-phenol], under setting [1], a half-maximal effect (EC50) was put at 1240 nM and the “SMN activity Fold” value is 2.28 Fold.

As to `CN1C(C)(C)CC(Nc2ccc(-c3ccc(-n4cccn4)cc3O)nn2)CC1(C)C` [Example 18-14, 2-[6-(1,2,2,6,6-pentamethyl-piperidin-4-ylamino)-pyridazin-3-yl]-5-pyrazol-1-yl-phenol], under setting [2], the EC50 was 17 nM and the “SMN activity Fold” value is 2.62 Fold.

For `CC1(C)CN(c2ccc(-c3ccc(-n4cccn4)cc3O)nn2)CCN1` [Example 18-15, 2-[6-(3,3-dimethyl-piperazin-1-yl)-pyridazin-3-yl]-5-pyrazol-1-yl-phenol], under setting [1], it took 714 nM to reach a half-maximal effect (EC50) and the “SMN activity Fold” value is given as 2.30 Fold.

Take `OCCN1CCC2(CCN(c3ccc(-c4ccc(-n5cccn5)cc4O)nn3)C2)C1` (centres unmarked) [Example 18-16, 2-(6-(7-(2-hydroxyethyl)-2,7-diazaspiro[4.4]-nonan-2-yl)pyridazin-3-yl)-5-(1H-pyrazol-1-yl)phenol]: under setting [1], a half-maximal effect (EC50) was put at 227 nM and the “SMN activity Fold” value was determined as 3.25 Fold.

Take `Oc1cc(-n2cccn2)ccc1-c1ccc(N2C[C@H]3CNC[C@H]3C2)nn1` [Example 18-17, 2-(6-((3aR,6aS)-hexahydropyrrolo[3,4-c]pyrrol-2(1H)-yl)pyridazin-3-yl)-5-(1H-pyrazol-1-yl)phenol]: under setting [1], a half-maximal response (EC50) required 158 nM and the “SMN activity Fold” value worked out at 2.85 Fold.

For the compound `Oc1ccc2cc(-c3ccc(N4CCNCC4)nn3)c(O)cc2c1` [Example 18-18, 3-(6-(piperazin-1-yl)pyridazin-3-yl)naphthalene-2,7-diol], under setting [1], the EC50 amounted to 56 nM and the “SMN activity Fold” value is 2.57 Fold.

On to `Oc1cc(-n2cccn2)ccc1-c1ccc(C2=CCNCC2)nn1` [Example 19-1, 5-pyrazol-1-yl-2-[6-(1,2,3,6-tetrahydro-pyridin-4-yl)-pyridazin-3-yl]-phenol], for which, under setting [1], the concentration for a half-maximal effect (EC50) stood at 477 nM and the “SMN activity Fold” value was found to be 2.77 Fold.

For the compound `Oc1cc(-n2cccn2)ccc1-c1ccc(C2CCNCC2)nn1` [Example 19-2, 2-(6-piperidin-4-yl-pyridazin-3-yl)-5-pyrazol-1-yl-phenol], under setting [1], the EC50 came out at 402 nM and the “SMN activity Fold” value is given as 2.73 Fold.

Regarding `Oc1cc2ccccc2cc1-c1ccc(C2=CCNCC2)nn1` [Example 19-3, 3-(6-(1,2,3,6-tetra-hydropyridin-4-yl)pyridazin-3-yl)naphthalen-2-ol], under setting [1], a half-maximal response (EC50) required 155 nM and the “SMN activity Fold” value was 2.19 Fold.

With `Oc1ccc2cc(-c3ccc(C4=CCNCC4)nn3)c(O)cc2c1` [Example 19-4, 3-(6-(1,2,3,6-tetrahydropyridin-4-yl)pyridazin-3-yl)naphthalene-2,7-diol], under setting [1], the 50% effective concentration (EC50) was found to be 25 nM and the “SMN activity Fold” value is on record as 2.47 Fold.

In the case of `CC1(C)C=C(c2ccc(-c3cc4ccc(O)cc4cc3O)nn2)CC(C)(C)N1` [Example 19-5, 3-(6-(2,2,6,6-tetramethyl-1,2,3,6-tetrahydropyridin-4-yl)pyridazin-3-yl)naphthalene-2,7-diol], under setting [1], it took 402 nM to reach a half-maximal effect (EC50) and the “SMN activity Fold” value worked out at 2.58 Fold.

On to `CN1CC=C(c2ccc(-c3cc4ccc(O)cc4cc3O)nn2)CC1` [Example 19-6, 3-(6-(1-methyl-1,2,3,6-tetrahydropyridin-4-yl)pyridazin-3-yl)naphthalene-2,7-diol], for which, under setting [1], the EC50 turned out to be 40 nM and the “SMN activity Fold” value is listed as 2.33 Fold.

For `Oc1ccc2cc(-c3ccc(C4CCNCC4)nn3)c(O)cc2c1` [Example 19-7, 3-(6-(piperidin-4-yl)pyridazin-3-yl)naphthalene-2,7-diol], under setting [1], the EC50 stood at 37 nM and the “SMN activity Fold” value is on record as 3.07 Fold.
